From ChEMBL document CHEMBL5214990, “Novel Aryl Alkamidazole Derivatives as Multifunctional Antifungal Inhibitors: Design, Synthesis, and Biological Evaluation” (J Med Chem, 2022)
The source made the active and inactive calls. The rule behind the calls is not given here.

What was measured:
[1] = Drug uptake in Candida albicans ATCC SC5314 assessed as increase in red and green fluorescence intensity measured after 10 hrs by PI/Hoechst […] staining based fluorescence microscopy; format: ADME
[2] = Toxicity in mouse infected with Candida albicans assessed as morphological changes in spleen at 20 mg/kg, ip administered on days 2,4,6,8,10,12 and measured on day 14 by hematoxyin-eosin staining based analysis; format: organism-based; settings: in vivo, 312 h, time 13 day
[3] = system: Mus musculus; test: Immunomodulatory activity in mouse infected with Candida albicans assessed as increase in expression intensity of CD3+ T cells in spleen at 20 mg/kg, ip administered on days 2,4,6,8,10,12 and measured on day 14 by immunohistochemical staining analysis relative to control; format: functional, T-cell; settings: time 13 day
[4] = system: Candida albicans; test: Induction of morphological changes in Candida albicans ATCC SC5314 assessed as reduction in fungal cell thickness measured after 48 to 72 hrs by transmission electron microscopy; format: functional, organism-based; settings: time 48-72 hrs
[5] = system: Candida albicans; test: Induction of morphological changes in Candida albicans ATCC SC5314 assessed as fungal cells with irregular shrunken characteristics measured after 48 to 72 hrs by transmission electron microscopy; format: functional, organism-based; settings: time 48-72 hrs
[6] = system: Candida albicans; test: Induction of morphological changes in Candida albicans ATCC SC5314 assessed as fungal cells with edema, cavitation, nuclear enrichment, accumulation of low density granular materials measured after 48 to 72 hrs by transmission electron microscopy; format: functional, organism-based; settings: time 48-72 hrs
[7] = system: Candida albicans; test: Induction of morphological changes in Candida albicans ATCC SC5314 assessed as disintegration of fungal cell membrane and cell wall measured after 96 hrs by transmission electron microscopy; format: functional, organism-based
[8] = system: Candida albicans; test: Induction of morphological changes in Candida albicans ATCC SC5314 assessed as rupturing of marginal regions measured after 96 hrs by transmission electron microscopy; format: functional, organism-based
[9] = system: Candida albicans; test: Induction of morphological changes in Candida albicans ATCC SC5314 assessed as exudation of fungal cell contents to the external region measured after 96 hrs by transmission electron microscopy; format: functional, organism-based
[10] = system: Candida albicans; test: Increase in intracellular ROS level in Candida albicans assessed as fold increase in fluorescence intensity measured after 12 hrs by fluorescence microscopic analysis relative to control; format: functional
[11] = system: Cryptococcus neoformans; test: Increase in intracellular ROS level in Cryptococcus neoformans assessed as fold increase in fluorescence intensity measured after 12 hrs by fluorescence microscopic analysis relative to control; format: functional

Compound: C[C@H](C(=O)N(C)CC(O)(Cn1ccnc1)c1ccc(Cl)cc1)c1ccc(-c2ccccc2)c(F)c1 (some centres undefined)
- Drug uptake [1]: Active
- Activity [2]: Non-Toxic
- fold change (FC) [3]: 2.12

Compound: C[C@H](C(=O)N(C)CC(O)(Cn1ccnc1)c1ccc(Cl)cc1Cl)c1cccc(C(=O)c2ccccc2)c1 (some centres undefined)
- Drug uptake [1]: Active
- Activity [4]: Active
- Activity [5]: Active
- Activity [6]: Active
- Activity [7]: Active
- Activity [8]: Active
- Activity [9]: Active
- Activity [2]: Non-Toxic
- fold change (FC) [3]: 2.12

Compound: OC(Cn1cncn1)(Cn1cncn1)c1ccc(F)cc1F [FLUCONAZOLE]
- Activity [10]: Active
- Activity [11]: Active
